CO[C@H]1/C=C/O[C@@]2(C)Oc3c(C)c(O)c4c(O)c(c(/C=N/N5CCN(C)CC5)c(O)c4c3C2=O)NC(=O)/C(C)=C\C=C\[C@H](C)[C@H](O)[C@@H](C)[C@@H](O)[C@@H](C)[C@H](OC(C)=O)[C@@H]1C
solubility (mole fraction)
Details	in ethanol	in ethyl acetate	in eugenol	in isopropanol	in isopropyl myristate	in limonene	in sec-butanol	in transcutol	in triacetin
298.2 K	0.00011	0.00054	0.00028	0.00073	0.0031	0.0023	0.00048	0.00097	0.00049
303.2 K	0.00016	0.00074	0.00031	0.00089	0.0038	0.0036	0.00051	0.0013	0.00052
308.2 K	0.00023	0.00088	0.00039	–	0.0043	0.0052	0.00059	0.0025	0.00072
313.2 K	0.00036	0.0091	0.00043	0.0016	0.0047	0.0085	0.00076	0.0049	0.00073
318.2 K	0.00053	0.013	0.00059	0.0017	–	–	–	0.018	0.00088

Details	solubility (mole fraction)
in span 80, 298.2 K	0.00058
in span 80, 303.2 K	0.00064
in span 80, 308.2 K	0.00079
in span 80, 313.2 K	0.00085
in span 80, 318.2 K	0.00099
